From patent publication US7282522B2, “Hydroxamic acid derivatives and the method for preparing thereof” (Amorepacific Corporation, priority 2003, dated 2007)
Like-named read-outs stand apart in the source and are kept apart here.

Legend:
[1] = system: collagenase; experiment: Inhibition of collagenase expression in human fibroblasts (ELISA kit); type: cell-based; settings: 10^−4M, 24 hours, serum-free medium, relative to control group = 100
In short: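 Serum-starved human fibroblasts were treated for 24 h with 10^−4M test material in serum-free DMEM. Collagenase in the culture fluid was measured by sandwich ELISA read at 405 nm. Values are expressed as % of the untreated control (=100).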

[2] = system: elastase; experiment: Inhibition of elastase expression in human fibroblasts (ELISA kit); type: cell-based; settings: 10^−4M, 24 hours, serum-free medium, relative to control group = 100
In short: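 Elastase in fibroblast culture fluid quantified by sandwich ELISA: 3 h capture, then chromophore-conjugated secondary antibody, then colour development, stopped with 1M sulfuric acid. Absorbance read at 405 nm. Expression given as % of the untreated control absorbance, with control set to 100.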

[3] = system: white guinea pigs; experiment: Phototoxicity test (UVA irradiation); settings: for Evaluation (phototoxicity): 1%(w/v) solution, UVA 15 J/cm^2; for Phototoxic index: 50 μl of 1%(w/v) solution, UVA 320~380 nm 15 J/cm^2, observed 24, 48 and 72 hours
Description: Test was performed for twenty-five (25) of white guinea pigs whose backs were depilated and fixed. On both sides of the back, six(6) sites of 2 cm×2 cm, three(3) per side were sectioned. Right sites were compared as controls with no irradiation (UV non-irradiation sites) and left sites were irradiated (UV irradiation sites).
30 Minutes later, right sites were shielded with aluminum foil and UVA(320˜380 nm) was irradiated at a distance of about 10 cm therefrom using Waldmann to the final energy of 15 J/cm^2. After 24, 48 and 72 hours elapsed, skin response of guinea pig was observed. […] Evaluation was estimated for each elapsed time, i.e. 24, 48 and 72 hours and maximum scores were selected, to calculate irritation index by the following equation 3. Then, phototoxic index was calculated by the following equation 4. Irritation index=(ΣMaximum of erythema+ΣMaximum of edema)/Number of animals [Equation 3] Phototoxic index=(Irritation index of UV irradiation site)−(Irritation index of UV non-irradiation site) Equation 4]

[4] = system: rabbits; settings: rabbit, in vivo
Description: (§1) Test was performed using fifty-six (56) of healthy male rabbits whose backs were depilated. […] 0.5ml of the test sample solution was applied to the right site of 2.5 cm×2.5 cm region on each of the depilated back. Left site with no sample treated was compared as a control. 24 hours or 72 hours later, skin abnormality such as erythema, crust and edema was observed.
(§2) Based on the score of skin response, skin irritation was evaluated according to Draize's P.I.I.(Primary Irritation Index) and compared with retinoic acid.

[5] = target: T1, RARα (Homo sapiens, UniProt P10276); experiment: RARE-luciferase reporter assay in transfected CV-1 cells (affinity to retinoic acid receptor), RARα; type: cell-based; settings: treated 24 hours at final concentration 10^−4M, control group 1000
T1 construct: expressed in transfected cells; host or cells: CV-1 cells (ATCC)
T1 sequence (P10276 1-462): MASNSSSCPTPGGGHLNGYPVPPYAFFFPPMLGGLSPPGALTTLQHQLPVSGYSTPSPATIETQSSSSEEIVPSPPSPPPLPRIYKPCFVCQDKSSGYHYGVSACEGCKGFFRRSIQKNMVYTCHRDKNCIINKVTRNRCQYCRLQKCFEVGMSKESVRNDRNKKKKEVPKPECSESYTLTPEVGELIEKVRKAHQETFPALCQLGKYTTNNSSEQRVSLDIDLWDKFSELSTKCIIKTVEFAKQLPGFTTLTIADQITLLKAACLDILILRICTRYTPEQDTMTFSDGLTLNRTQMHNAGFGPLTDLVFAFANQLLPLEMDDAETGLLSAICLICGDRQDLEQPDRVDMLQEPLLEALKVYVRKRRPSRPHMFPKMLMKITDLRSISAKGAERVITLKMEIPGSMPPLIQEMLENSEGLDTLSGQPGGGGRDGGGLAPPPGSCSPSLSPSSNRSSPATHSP
In short: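 CV-1 cells co-transfected with pECE-RARα or pECE-RARγ, RARE-tk-Luc reporter and β-galactosidase vector. Starting 24 h post-transfection, cells were treated for 24 h with compounds at a final 10^−4M; luciferase reporter read-out.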

[6] = system: procollagen type I; experiment: Effect on collagen biosynthesis (procollagen type I ELISA) in human fibroblasts; type: cell-based; settings: 10^−4M, 24 hours, serum-free medium, relative to control group = 100
Description: Human fibroblasts were seeded into 24-well plate at 1×10^5 cells per well and then cultured to 90% of growth.
For each supernatant, procollagen production was measured with procollagen type I ELISA kit.

[7] = target: T2, RARγ (Homo sapiens, UniProt P13631); experiment: RARE-luciferase reporter assay in transfected CV-1 cells (affinity to retinoic acid receptor), RARγ; type: cell-based; settings: treated 24 hours at final concentration 10^−4M, control group 5000
T2 construct: expressed in transfected cells; host or cells: CV-1 cells (ATCC)
T2 sequence (P13631 1-454): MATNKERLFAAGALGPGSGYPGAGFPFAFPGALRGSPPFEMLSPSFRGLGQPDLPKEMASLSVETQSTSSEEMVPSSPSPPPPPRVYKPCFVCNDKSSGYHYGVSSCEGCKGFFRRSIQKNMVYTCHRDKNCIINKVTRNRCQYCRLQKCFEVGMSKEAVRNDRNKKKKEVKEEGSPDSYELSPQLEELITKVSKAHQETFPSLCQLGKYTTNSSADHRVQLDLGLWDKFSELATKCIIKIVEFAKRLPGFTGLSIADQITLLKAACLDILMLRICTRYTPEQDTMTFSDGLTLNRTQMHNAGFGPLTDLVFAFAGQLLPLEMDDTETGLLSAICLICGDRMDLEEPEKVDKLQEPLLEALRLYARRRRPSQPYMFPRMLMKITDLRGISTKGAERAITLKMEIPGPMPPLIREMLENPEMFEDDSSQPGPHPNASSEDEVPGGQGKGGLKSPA
In short: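 CV-1 cells in DMEM with 2.5% FBS, 5,000 per well, transfected 24 h after seeding with 10 ng pECE-RARα, pECE-RARγ, 100 ng RARE-tk-Luc reporter and 100 ng β-galactosidase vector. Read-out is RARE-driven luciferase.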

[8] = system: rabbits; experiment: Primary skin irritation test on animals (Draize P.I.I.); settings: depilated back
Description: as §1, §2

Compound | Collagenase expression (%) [1] [%] | Elastase expression (%) [2] [%] | Evaluation (phototoxicity) [3] | Phototoxic index [3] | Evaluation (skin irritation) [4] | P.I.I. (Primary Irritation Index) [4] | Luciferase activity RARα [5] | Collagen biosynthesis (%) [6] [%] | Luciferase activity RARγ [7] | P.I.I. (Primary Irritation Index) ([8]; 0.5 ml of 1% solution in 1,3-butylene glycol:ethanol 7:3, observed 24 or 72 hours later) | Evaluation (skin irritation) ([8]; 1% solution, according to Draize's P.I.I.)
CN(C(=O)c1ccc(C(C)(C)C)cc1)c1ccc(C(=O)NO)cc1 [Example 19, N-[4-(N-hydroxycarbamoyl)phenyl]-N-methyl-[4-tert-butylphenyl]carboxyamide] | 70 | 80 | No phototoxicity (lower value than 0.5, criterion value to be estimated as no phototoxicity) | 0 | No irritation | 0.223 | 10020 | 120 | 11200 |  | 
O=C(Cc1ccc(NC(=O)c2ccccc2)cc1)NO [Example 23, N-[4-(N-hydroxycarbamoylmethyl)phenyl]benzamide] | 77 | 79 | No phototoxicity (lower value than 0.5, criterion value to be estimated as no phototoxicity) | 0 | No irritation | 0.321 | 13000 | 131 | 13200 |  | 
CN(O)C(=O)c1ccc(C(=O)N(C)C23CC4CC(CC(C4)C2)C3)cc1 [Example 55, N-adamantyl [4-(N-hydroxy-N-methylcarbamoyl)phenyl]-N-methyl carboxyamide] | 85 | 70 | No phototoxicity (lower value than 0.5, criterion value to be estimated as no phototoxicity) | 0 |  |  | 13400 | 108 | 11000 | 0.245 | No irritation
N-[4-(N-hydroxycarbamoyl)phenyl]adamantyl carboxyamide [Example 10] | 75 | 77 | No phototoxicity (lower value than 0.5, criterion value to be estimated as no phototoxicity) | 0 | No irritation | 0.375 | 11000 | 106 | 12000 |  | 
